This passage reports S35 results from patent publication US9730937B2, “RAF kinase modulator compounds and methods of use thereof” (AMBIT BIOSCIENCES CORPORATION, priority 2008, dated 2017).

The experiment deals with panel of 290 distinct kinases (321 in the larger panel), excluding mutant variants. Particulars: no asterisk: panel of 290 distinct kinases.
With `COCCOc1cc2ncnc(Sc3cccc(NC(=O)Nc4cc(C(C)(C)C)nn4-c4cccc(C)c4)c3)c2cc1OC` [Ex 287, 1-(3-tert-butyl-1-m-tolyl-1H-pyrazol-5-yl)-3-(3-(6-methoxy-7-(2-methoxyethoxy)quinazolin-4-ylthio)phenyl)urea], the S35 entry was “D (D > 0.40)”.

Regarding `COc1cc2ncnc(Oc3cccc(NC(=O)Nc4cc(C(C)(C)C)nn4-c4ccc(C)cc4)c3C)c2cc1OC` [Ex 288, 1-(3-tert-butyl-1-p-tolyl-1H-pyrazol-5-yl)-3-(3-(6,7-dimethoxyquinazolin-4-yloxy)-2-methylphenyl)urea], the S35 entry is on record as “C (0.20 < C ≦ 0.40)”.

`COc1cc2ncnc(Oc3cccc(NC(=O)Nc4cc(C(C)(C)C)nn4-c4ccccc4)c3C)c2cc1OC` [Ex 289, 1-(3-tert-butyl-1-phenyl-1H-pyrazol-5-yl)-3-(3-(6,7-dimethoxyquinazolin-4-yloxy)-2-methylphenyl)urea]: the S35 entry is recorded as “C (0.20 < C ≦ 0.40)”.

Consider `COc1cc2ncnc(Oc3cccc(NC(=O)Nc4cc(C(C)(C)C)on4)c3C)c2cc1OC` [Ex 290, 1-(5-tert-butylisoxazol-3-yl)-3-(3-(6,7-dimethoxyquinazolin-4-yloxy)-2-methylphenyl)urea], for which the S35 entry is “C (0.20 < C ≦ 0.40)”.

For `COc1cc2ncnc(Oc3cccc(NC(=O)Nc4cc(C(F)(F)F)nn4-c4ccccc4)c3C)c2cc1OC` [Ex 291, 1-(3-(6,7-Dimethoxyquinazolin-4-yloxy)-2-methylphenyl)-3-(1-phenyl-3-(trifluoromethyl)-1H-pyrazol-5-yl)urea], the S35 entry is recorded as “B (0.10 < B ≦ 0.20)”.

For `COc1cc2ncnc(Oc3cc(NC(=O)Nc4cc(C(C)(C)F)no4)ccc3F)c2cc1OC` [Ex 293, 1-(3-(6,7-dimethoxyquinazolin-4-yloxy)-4-fluorophenyl)-3-(3-(2-fluoropropan-2-yl)isoxazol-5-yl)urea], the S35 result is recorded as “C (0.20 < C ≦ 0.40)”.

Regarding `COc1cc2ncnc(Oc3cc(NC(=O)Nc4cc(C(C)(CF)CF)on4)ccc3F)c2cc1OC` [Ex 294, 1-(5-(1,3-difluoro-2-methylpropan-2-yl)isoxazol-3-yl)-3-(3-(6,7-dimethoxyquinazolin-4-yloxy)-4-fluorophenyl)urea], the S35 entry is reported as “D (D > 0.40)”.

Regarding `COc1cc2ncnc(Oc3cccc(NC(=O)Nc4cc(C(C)(C)C)nn4-c4ccccc4)c3F)c2cc1OC` [Ex 295, 1-(3-tert-butyl-1-phenyl-1H-pyrazol-5-yl)-3-(3-(6,7-dimethoxyquinazolin-4-yloxy)-2-fluorophenyl)urea], the S35 result is “C (0.20 < C ≦ 0.40)”.

With `COc1cc2ncnc(Oc3cccc(NC(=O)Nc4cc(C(C)(C)F)no4)c3F)c2cc1OC` [Ex 296, 1-(3-(6,7-dimethoxyquinazolin-4-yloxy)-2-fluorophenyl)-3-(3-(2-fluoropropan-2-yl)isoxazol-5-yl)urea], the S35 entry was “B (0.10 < B ≦ 0.20)”.

On to `COc1cc2ncnc(Oc3cccc(NC(=O)Nc4cc(C(C)(CF)CF)on4)c3F)c2cc1OC` [Ex 297, 1-(5-(1,3-difluoro-2-methylpropan-2-yl)isoxazol-3-yl)-3-(3-(6,7-dimethoxyquinazolin-4-yloxy)-2-fluorophenyl)urea], for which the S35 entry is reported as “C (0.20 < C ≦ 0.40)”.

As to `COc1cc2ncnc(Oc3ccc(Cl)c(NC(=O)Nc4cc(C(C)(C)C)nn4-c4ccc(C)cc4)c3)c2cc1OC` [Ex 298, 1-(3-tert-butyl-1-p-tolyl-1H-pyrazol-5-yl)-3-(2-chloro-5-(6,7-dimethoxyquinazolin-4-yloxy)phenyl)urea], the S35 entry is “D (D > 0.40)”.

`COc1cc2ncnc(Oc3ccc(Cl)c(NC(=O)Nc4cc(C(C)(C)C)on4)c3)c2cc1OC` [Ex 299, 1-(5-tert-butylisoxazol-3-yl)-3-(2-chloro-5-(6,7-dimethoxyquinazolin-4-yloxy)phenyl)urea]: the S35 entry is recorded as “C (0.20 < C ≦ 0.40)”.

On to `COc1cc2ncnc(Oc3ccc(Cl)c(NC(=O)Nc4cc(C(F)(F)F)nn4-c4ccccc4)c3)c2cc1OC` [Ex 300, 1-(2-chloro-5-(6,7-dimethoxyquinazolin-4-yloxy)phenyl)-3-(1-phenyl-3-(trifluoromethyl)-1H-pyrazol-5-yl)urea], for which the S35 result was “C (0.20 < C ≦ 0.40)”.

As to `COc1cc2ncnc(Oc3ccc(Cl)c(NC(=O)Nc4cc(C(C)(C)C)nn4-c4ccccc4)c3)c2cc1OC` [Ex 301, 1-(3-tert-butyl-1-phenyl-1H-pyrazol-5-yl)-3-(2-chloro-5-(6,7-dimethoxyquinazolin-4-yloxy)phenyl)urea], the S35 entry is “D (D > 0.40)”.

On to `COc1cc2ncnc(Oc3cccc(NC(=O)Nc4cc(C(C)(C)CN5CCOCC5)on4)c3)c2cc1OC` [Ex 302, 1-(3-(6,7-dimethoxyquinazolin-4-yloxy)phenyl)-3-(5-(2-methyl-1-morpholinopropan-2-yl)isoxazol-3-yl)urea], for which the S35 entry is listed as “B (0.10 < B ≦ 0.20)”.

Consider `COc1cc2ncnc(Oc3cccc(NC(=O)Nc4cc(C(C)(C)C)nn4-c4cnccc4C)c3)c2cc1OC` [Ex 303, 1-(3-tert-butyl-1-(4-methylpyridin-3-yl)-1H-pyrazol-5-yl)-3-(3-(6,7-dimethoxyquinazolin-4-yloxy)phenyl)urea], for which the S35 entry is “D (D > 0.40)”.

`COc1cc2ncnc(Oc3cccc(NC(=O)Nc4cc(C(F)(F)C(F)(F)F)nn4-c4ccccc4)c3)c2cc1OC` [Ex 304, 1-(3-(6,7-dimethoxyquinazolin-4-yloxy)phenyl)-3-(3-(perfluoroethyl)-1-phenyl-1H-pyrazol-5-yl)urea]: the S35 entry is given as “C (0.20 < C ≦ 0.40)”.

In the case of `COc1cc2ncnc(Sc3cccc(NC(=O)Nc4cc(C5CCC5)nn4-c4ccccc4)c3)c2cc1OC` [Ex 356, 1-(3-cyclobutyl-1-phenyl-1H-pyrazol-5-yl)-3-(3-(6,7-dimethoxyquinazolin-4-ylthio)phenyl)urea], the S35 entry is on record as “C (0.20 < C ≦ 0.40)”.

As to `COc1cc2ncnc(Oc3cccc(NC(=O)Nc4cc(C(C)(C)C)nn4Cc4ccccc4)c3)c2cc1OC` [Ex 357, 1-(1-benzyl-3-tert-butyl-1H-pyrazol-5-yl)-3-(3-(6,7-dimethoxyquinazolin-4-yloxy)phenyl)urea], the S35 result is “C (0.20 < C ≦ 0.40)”.

With `COc1cc2ncnc(Sc3cccc(NC(=O)Nc4cc(C(C)(C)C)nn4Cc4ccccc4)c3)c2cc1OC` [Ex 358, 1-(1-benzyl-3-tert-butyl-1H-pyrazol-5-yl)-3-(3-(6,7-dimethoxyquinazolin-4-ylthio)phenyl)urea], the S35 result is reported as “C (0.20 < C ≦ 0.40)”.

With `COc1cc2ncnc(Oc3cccc(NC(=O)Nc4cc(C(C)(C)C)nn4-c4cccc(F)c4)c3)c2cc1OC` [Ex 359, 1-(3-tert-butyl-1-(3-fluorophenyl)-1H-pyrazol-5-yl)-3-(3-(6,7-dimethoxyquinazolin-4-yloxy)phenyl)urea], the S35 entry is “D (D > 0.40)”.

Take `COc1cc2ncnc(Sc3cccc(NC(=O)Nc4cc(C(C)(C)C)nn4-c4cccc(F)c4)c3)c2cc1OC` [Ex 360, 1-(3-tert-butyl-1-(3-fluorophenyl)-1H-pyrazol-5-yl)-3-(3-(6,7-dimethoxyquinazolin-4-ylthio)phenyl)urea]: the S35 entry was “D (D > 0.40)”.

As to `COc1ccc(-n2nc(C(C)(C)C)cc2NC(=O)Nc2cccc(Oc3ncnc4cc(OC)c(OC)cc34)c2)cc1` [Ex 361, 1-(3-tert-butyl-1-(4-methoxyphenyl)-1H-pyrazol-5-yl)-3-(3-(6,7-dimethoxyquinazolin-4-yloxy)phenyl)urea], the S35 result was “C (0.20 < C ≦ 0.40)”.

As for `COc1ccc(-n2nc(C(C)(C)C)cc2NC(=O)Nc2cccc(Sc3ncnc4cc(OC)c(OC)cc34)c2)cc1` [Ex 362, 1-(3-tert-butyl-1-(4-methoxyphenyl)-1H-pyrazol-5-yl)-3-(3-(6,7-dimethoxyquinazolin-4-ylthio)phenyl)urea], the S35 entry is on record as “D (D > 0.40)”.

Turning to `COc1cc2ncnc(Oc3cccc(NC(=O)Nc4cc(C(C)(C)C)nn4-c4cccc(Cl)c4)c3)c2cc1OC` [Ex 363, 1-(3-tert-butyl-1-(3-chlorophenyl)-1H-pyrazol-5-yl)-3-(3-(6,7-dimethoxyquinazolin-4-yloxy)phenyl)urea], the S35 entry was “D (D > 0.40)”.

Regarding `COc1cc2ncnc(Sc3cccc(NC(=O)Nc4cc(C(C)(C)C)nn4-c4cccc(Cl)c4)c3)c2cc1OC` [Ex 364, 1-(3-tert-butyl-1-(3-chlorophenyl)-1H-pyrazol-5-yl)-3-(3-(6,7-dimethoxyquinazolin-4-ylthio)phenyl)urea], the S35 result is reported as “D (D > 0.40)”.

For `COc1cc2ncnc(Oc3cccc(NC(=O)Nc4cc(C(C)(C)C)nn4-c4ccc(Cl)cc4)c3)c2cc1OC` [Ex 365, 1-(3-tert-butyl-1-(4-chlorophenyl)-1H-pyrazol-5-yl)-3-(3-(6,7-dimethoxyquinazolin-4-yloxy)phenyl)urea], the S35 result is “D (D > 0.40)”.

Take `COc1cc2ncnc(Sc3cccc(NC(=O)Nc4cc(C(C)(C)C)nn4-c4ccc(Cl)cc4)c3)c2cc1OC` [Ex 366, 1-(3-tert-butyl-1-(4-chlorophenyl)-1H-pyrazol-5-yl)-3-(3-(6,7-dimethoxyquinazolin-4-ylthio)phenyl)urea]: the S35 entry was “D (D > 0.40)”.

On to `COc1cc2ncnc(Oc3ccc(F)c(NC(=O)Nc4cc(C(C)(C)C)on4)c3)c2cc1OC` [Ex 367, 1-(5-tert-butylisoxazol-3-yl)-3-(5-(6,7-dimethoxyquinazolin-4-yloxy)-2-fluorophenyl)urea], for which the S35 entry is recorded as “D (D > 0.40)”.

Take `COc1cc2ncnc(Oc3ccc(F)c(NC(=O)Nc4cc(C(C)(C)C)nn4-c4ccccc4)c3)c2cc1OC` [Ex 368, 1-(3-tert-butyl-1-phenyl-1H-pyrazol-5-yl)-3-(5-(6,7-dimethoxyquinazolin-4-yloxy)-2-fluorophenyl)urea]: the S35 result was “D (D > 0.40)”.

In the case of `COc1cc2ncnc(Oc3cccc(NC(=O)Nc4cc(C(C)(C)C)nn4-c4ccc(C(C)(C)C)cc4)c3)c2cc1OC` [Ex 369, 1-(3-tert-butyl-1-(4-tert-butylphenyl)-1H-pyrazol-5-yl)-3-(3-(6,7-dimethoxyquinazolin-4-yloxy)phenyl)urea], the S35 result is on record as “C (0.20 < C ≦ 0.40)”.

As for `COc1cc2ncnc(Sc3cccc(NC(=O)Nc4cc(C(C)(C)C)nn4-c4ccc(C(C)(C)C)cc4)c3)c2cc1OC` [Ex 370, 1-(3-tert-butyl-1-(4-tert-butylphenyl)-1H-pyrazol-5-yl)-3-(3-(6,7-dimethoxyquinazolin-4-ylthio)phenyl)urea], the S35 result was “D (D > 0.40)”.
